# Literature values as cited in patent US20040180832A1, “Sustained peptide-release formulation” (Peptech Limited, priority 1996, published 2004).
# Test system: advanced prostatic cancer
# Settings: monthly subcutaneous injections
compound,measurement,value
"CC(C)C[C@H](NC(=O)[C@@H](COC(C)(C)C)NC(=O)[C@H](Cc1ccc(O)cc1)NC(=O)[C@H](CO)NC(=O)[C@H](Cc1c[nH]c2ccccc12)NC(=O)[C@H](Cc1cnc[nH]1)NC(=O)[C@@H]1CCC(=O)N1)C(=O)N[C@@H](CCCNC(=N)N)C(=O)N1CCC[C@H]1C(=O)NNC(N)=O [goserelin, 3-[5-oxo-L-prolyl-L-tryptophyl-L-seryl-L-tyrosyl-(3-O-tert-butyl)-D-seryl-L-leucyl-L-arginyl-L-prolyl] cabazamide acetate.]",efficacy in advanced prostatic cancer compared with orchiectomy,as effective as orchiectomy
same,tolerability,well tolerated
